Strand notation (5' to 3'): a small letter for the sugar, then the base; units joined by * are phosphorothioate-linked, units joined directly phosphodiester-linked; [ ] holds rarer units or linkages, { } end groups; capitals alone tell only the bases. l = locked nucleic acid (LNA); [5mC] = 5-methylcytosine; d = 2'-deoxy (DNA)
Assays:
miR-122a [1] = test: Melting temperature (Tm) of LNA anti-miR/miR-122a RNA duplex; type: physicochemical, human; settings: Table 2; towards synthetic miR-122a RNA oligonucleotide with phosphorothioate linkages; PS backbone
Method: The melting temperatures were assessed towards the mature miR-122a sequence, using a synthetic miR-122a RNA oligonucleotide with phosphorothioate linkaged.
The LNA anti-miR/miR-122a oligo duplex was diluted to 3 μM in 500 μl RNase free H2O, which was then mixed with 500 μl 2× dimerization buffer (final oligo/duplex conc. 1.5 μM, 2× Tm buffer: 200 mM NaCl, 0.2 mM EDTA, 20 mM NaP, pH 7.0, DEPC treated to remove RNases). The mix was first heated to 95 degrees for 3 minutes, then allowed to cool at room temperature (RT) for 30 minutes.
Following RT incubation Tm was measured on Lambda 40 UV/VIS Spectrophotometer with peltier temperature progammer PTP6 using PE Templab software (Perkin Elmer). The temperature was ramped up from 20° C. to 95° C. and then down again to 20° C., continuously recording absorption at 260 nm. First derivative and local maximums of both the melting and annealing was used to assess melting/annealing point (Tm), both should give similar/same Tm values. For the first derivative 91 points was used to calculate the slope.

miR-122a [2] = test: miR-122a level in transfected Huh-7 cells by miR-122a specific qRT-PCR; type: cell-based, human; settings: transfected at 1 and 100 nM, 24 hours after transfection
Method: The miR-122a expressing cell line Huh-7 was transfected with LNA anti-miR5 at 1 and 100 nM concentrations according to optimized lipofectamine 2000 (LF2000, Invitrogen) protocol (as follows).
Huh-7 cells were cultivated in Eagles MEM with 10% FBS, 2 mM Glutamax I, 1× non-essential amino acids, Gentamicin 25 μg/ml. The cells were seeded in 6-well plates (300000 cells per well), in a total vol. of 2.5 ml the day before transfection. At the day of transfection a solution containing LF2000 diluted in Optimem (Invitrogen) was prepared (1.2 ml optimem+3.75 μl LF2000 per well, final 2.5 μg LF2000/ml, final tot vol 1.5 ml).
LNA Oligonucleotides (LNA anti-miRs) were also diluted in optimem. 285 μl optimem+15 μl LNA oligonucleotide (10 μM oligonucleotide stock for final concentration 100 nM and 0.1 μM for final concentration 1 nM) Cells were washed once in optimem then the 1.2 ml optimem/LF2000 mix were added to each well. Cells were incubated 7 min at room temperature in the LF2000 mix where after the 300 μl oligonucleotide optimem solution was added. […]
miR-122a levels in the RNA samples were assessed on an ABI 7500 Fast real-time PCR instrument (Applied Biosystems, USA) using a miR-122a specific qRT-PCR kit, mirVana (Ambion, USA) and miR-122a primers (Ambion, USA). […]

miR-122a [3] = test: miR-122a levels in mouse liver by microRNA specific qPCR; type: in vivo; settings: hypercholesterolemic and normal mice; 5 mg/kg i.p. twice weekly for 5½ weeks
Method: Total RNA was extracted from liver samples as described above and analysed for miR-122a levels by microRNA specific QPCR.
In vivo study: Ten groups of animals (female C57/BL6; 3 mice per group) were treated in the following manner. Group 1 animals were injected with 0.2 ml saline by i.p. on day 0, day 2 and day 4. Groups 2-10 were dosed by i.p. with three different conc. (25 mg/kg, 5 mg/kg and 1 mg/kg) of either LNA antimiR-122a/SEQ ID NO: 61 (group 2-4), LNA antimir-122a/SEQ ID NO: 66 (group 5-7) or LNA antimir-122a/SEQ ID NO: 63 (group 8-10); the LNA antimir-122a sequences are given in the Table 1. All three LNA antimiR-122a oligonucleotides target the liver-specific miR-122a. The doses were calculated from the Day 0 body weights of each animal.
The animals were sacrificed 48 hours after last dose (Day 6), retro-orbital blood was collected in tubes containing EDTA and the plasma fraction harvested and stored frozen −80° C. for cholesterol analysis. At sacrifice livers were dissected and one portion was cut into 5 mm cubes and immersed in 5 volumes of ice-cold RNAlater. A second portion was snap frozen in liquid nitrogen and stored for cryo-sectioning.
Total RNA was extracted from liver samples using Trizol reagent according to the manufacturer's recommendations (Invitrogen, USA) and analysed for miR-122a levels by microRNA-specific QPCR according to the manufacturer's recommendations (Ambion, USA). […]
NMRI female mice were treated with indicated doses of LNA-antimiR (SEQ ID NO: 61) along with a mismatch control (m, SEQ ID NO: 65), saline and antagomir (SPC3595) for three consecutive days and sacrificed 24 hours after last dose (as in example 11 “old design”, n=5). miR-122 levels were analyzed by qPCR and normalized to the saline treated group.
(§1) C57BL/6J female mice were fed on high fat diet for 13 weeks before the initiation of the SEQ ID NO: 63 treatment. […] Both hypercholesterolemic and normal mice were treated i.p. twice weekly with 5 mg/kg SEQ ID NO: 63 and the corresponding mismatch control for a study period of 5½ weeks. Blood samples were collected weekly and total plasma cholesterol was measured during the entire course of the study. Upon sacrificing the mice, liver and blood samples were prepared for total RNA extraction, miRNA and mRNA quantification, assessment of the serum transaminase levels, and liver histology.
The miR-122 and let-7a microRNA levels were quantified with TaqMan microRNA Assay (Applied Biosystems) following the manufacturer's instructions. The RT reaction was diluted ten times in water and subsequently used for real time PCR amplification according to the manufacturer's instructions. A two-fold cDNA dilution series from liver total RNA of a saline-treated animal or mock transfected cells cDNA reaction (using 2.5 times more total RNA than in samples) served as standard to ensure a linear range (Ct versus relative copy number) of the amplification. Applied Biosystems 7500 or 7900 real-time PCR instrument was used for amplification.

miR-122 = test: Total plasma cholesterol in hypercholesterolemic and normal mice, long-term treatment; type: in vivo, mouse; settings: hypercholesterolemic and normal mice; 5 mg/kg i.p. twice weekly
Method: as §1
C57BL/6J female mice (Taconic M&B Laboratory Animals, Ejby, Denmark) were used. All substances were formulated in physiological saline (0.9% NaCl) to final concentration allowing the mice to receive an intraperitoneal injection volume of 10 ml/kg.
In the diet induced obesity study, the mice received a high fat (60EN %) diet (D12492, Research Diets) for 13 weeks to increase their blood cholesterol level before the dosing started. The dose regimen was stretched out to 5½ weeks of 5 mg/kg LNA-antimiR™ twice weekly. Blood plasma was collected once a week during the entire dosing period. After completion of the experiment the mice were sacrificed and RNA extracted from the livers for further analysis. Serum was also collected for analysis of liver enzymes.
Immediately before sacrifice retro-orbital sinus blood was collected in EDTA-coated tubes followed by isolation of the plasma fraction. Total plasma cholesterol was analysed using ABX Pentra Cholesterol CP (Horiba Group, Horiba ABX Diagnostics) according to the manufacturer's instructions.

[4] = test system: miR-122a target genes (Bckdk, aldolase A, Nrdg3, CD320, Vldlr); test: miR-122a target mRNA levels in mouse liver by qPCR; type: in vivo; settings: 5 mg/kg i.p. twice weekly for 5½ weeks

Substance | Tm (° C.) (miR-122a [1]) | inhibition of miR-122a (in words) (miR-122a [2]) | miR-122 levels in liver after long-term treatment (in words) (miR-122a [3]) | effect on plasma cholesterol levels (in words) (miR-122) | de-repression of direct miR-122 target genes (AldoA and Bckdk) after long-term treatment (in words) [4]
5′-CcAttCTgaCcCtAC-3′ (antisense l[5mC]*dC*lA*dT*dT*l[5mC]*lT*dG*dA*l[5mC]*dC*l[5mC]*dT*lA*l[5mC]) [SEQ ID NO: 64, reference compound] | 32 °C | not found to inhibit miR-122a |  |  | 
mismatch control: the corresponding mismatch control to SEQ ID NO: 63 in Example 31; probably SEQ ID NO: 64 (antisense l[5mC]*dC*lA*dT*dT*l[5mC]*lT*dG*dA*l[5mC]*dC*l[5mC]*dT*lA*l[5mC]) [reference compound] |  |  | had an effect on miR-122 levels | did not affect the plasma cholesterol levels | did not result in any functional de-repression

Source: patent publication US8440637B2, “Combination treatment for the treatment of hepatitis C virus infection” (priority 2007, dated 2013)
